Measurements as given in patent US7208479B2, “Peritoneal dialysis solution containing modified icodextrins” (Baxter International, Inc., priority 1998, dated 2007).

Tests used:
[1] = In vitro dialysis test predictive of dialytic efficiency: volume increase inside dialysis bag (Spectra Pore membrane, cut-off 500 Dalton); conditions: 37° C.
Procedure: In an in vitro test predictive of the dialytic efficiency of the osmotic agents described above, small dialysis bags with Spectra Pore membrane with a cut-off 500 Dalton (diameter 15 mm, 15 cm high) were filled with 3 ml of water solutions at different concentrations (2.5, 5.0% w/v of the samples). The bags were immersed in 200 ml of distilled water and 37° C. while stirring the extra dialysis solution. At given times (0, 1, 2, 3, 4, 5, 6 hours), the increase in the volume inside the dialysis bag was evaluated by weight and expressed as a percentage increase compared to the starting volume (Δw %).

[2] = Stability under sterilization conditions: absorbance (284 nm) variation after sterilization (121° C. 45 min); format: physicochemical
Procedure: The products were tested for stability under sterilization conditions at neutral pH. A significant reduction of absorbance variation at 284 nm (Δ Abs) after sterilization is observed for the reduced compounds. The reduced compounds from Example 1 are listed as HMW1 red, HMW2 red and LMW red in Table 1.
Utilizing the three different samples of maltodextrins discussed above with respect to Example 1, oxidation reactions were carried out on each sample by dissolving 15 grams of maltodextrin in 30 ml of water and combining the starch solution with an effective amount of NaOCl in 70 ml of a solution containing sodium hydroxide and having a pH of 8±0.5 at a temperature of 43° C. The combined solutions were allowed to stand for approximately 2 hours and the product solution was purified by gel permeation chromatography. Again, the products were analyzed using ^13C NMR spectroscopy and were tested for stability under sterilization conditions as illustrated in Table 1. While the oxidation products, HMW1 ox HMW2 ox and LMW ox show contrasting results, this is attributed to the high molecular weight oxidized products not being completely purified.
The stability of one product shown in Table 3 was tested for stability under sterilization conditions and the observed variation at 284 nm is compared with that of glucose and methyl glycoside.

[3] = 2.5% w/v, listed as β-methly-gluc.
[4] = 2.5% w/v, listed as α-methly-gluc.
[5] = 2.5% solution at pH 7 (footnote *), sterilization 121° C. 45 min
[6] = Table 4, 2.5% (w/v), sterilization 121° C. 45 min

Compound	ΔAbs (pH 6.5–7.5) [2, 5]	ΔAbs neutra (pH 6.5–7.5) [2, 6]	Δw % 1 h ([1]; 2.5% w/v) [%]	Δw % 2 h ([1]; 2.5% w/v) [%]	Δw % 3 h ([1]; 2.5% w/v) [%]	Δw % 4 h ([1]; 2.5% w/v) [%]	Δw % 5 h ([1]; 2.5% w/v) [%]	Δw % 6 h ([1]; 2.5% w/v) [%]	Δw % 1 h ([1]; 5% w/v) [%]	Δw % 2 h ([1]; 5% w/v) [%]	Δw % 3 h ([1]; 5% w/v) [%]	Δw % 4 h ([1]; 5% w/v) [%]	Δw % 5 h ([1]; 5% w/v) [%]	Δw % 6 h ([1]; 5% w/v) [%]	other results
O=P(O)(O)O[C@H]1O[C@H](CO)[C@@H](O)[C@H](O)[C@H]1O [gluc.-1-phos., glucose-1-phosphate]	–	–	35.8	53.6	76.3	95.9	120.1	144.1	–	–	–	–	–	–	–
COC1OC(CO)C(O)C(O)C1O (stereo not drawn) [β-methyl-gluc.]	–	–	–	–	–	–	–	–	45	76.1	103.0	129.7	151.7	174.9	Δw % 1 h [1, 3]: 34.0%; Δw % 2 h [1, 3]: 50.3%; Δw % 3 h [1, 3]: 63.7%; Δw % 4 h [1, 3]: 67.6%; Δw % 5 h [1, 3]: 77.7%; Δw % 6 h [1, 3]: 86.5%
COC1OC(CO)C(O)C(O)C1O (stereo not drawn) [α-methyl-gluc.]	–	–	–	–	–	–	–	–	30.9	60.7	86.5	107.9	123.2	142.0	Δw % 1 h [1, 4]: 21.8%; Δw % 2 h [1, 4]: 39.2%; Δw % 3 h [1, 4]: 55.4%; Δw % 4 h [1, 4]: 67.64%; Δw % 5 h [1, 4]: 79.5%; Δw % 6 h [1, 4]: 92.1%

Now from value to compound, other results behind:

ΔAbs (pH 6.5–7.5) [2, 5]	ΔAbs neutra (pH 6.5–7.5) [2, 6]	Compound	Δw % 1 h ([1]; 2.5% w/v) [%]	Δw % 2 h ([1]; 2.5% w/v) [%]	Δw % 3 h ([1]; 2.5% w/v) [%]	Δw % 4 h ([1]; 2.5% w/v) [%]	Δw % 5 h ([1]; 2.5% w/v) [%]	Δw % 6 h ([1]; 2.5% w/v) [%]	Δw % 1 h ([1]; 5% w/v) [%]	Δw % 2 h ([1]; 5% w/v) [%]	Δw % 3 h ([1]; 5% w/v) [%]	Δw % 4 h ([1]; 5% w/v) [%]	Δw % 5 h ([1]; 5% w/v) [%]	Δw % 6 h ([1]; 5% w/v) [%]	other results
0.98	0.07	O=C[C@H](O)[C@@H](O)[C@H](O)[C@H](O)CO [Glucose]	15.3	34.2	43.4	57.3	74.2	90.9	–	–	–	–	–	–	ΔAbs (pH 6.5–7.5) ([2]; 5% solution, after minus before sterilization 121° C. 45 min, pH 6.5–7.5): 2.54 ± 0.78; ΔAbs (pH 5.5) ([2]; 5% solution, sterilization 121° C. 45 min, pH 5.5): 2.36 ± 0.96; ΔAbs neutra (pH 6.5–7.5) ([2]; Table 4, 5% (w/v), sterilization 121° C. 45 min): 2.43 ± 0.9
–	0.01	Methyl glycoside	–	–	–	–	–	–	–	–	–	–	–	–	–
0.01	–	O=C1O[C@H](CO)[C@@H](O)[C@H](O)[C@H]1O [D(+)-Gluconolactone]	–	–	–	–	–	–	–	–	–	–	–	–	–
